“Also recorded” adds a separate entry of the source.
Tests used:
[1] = test system: LN229 WT and LN229-MSH2^− flank tumors; assay: Xenograft Experiments (FIG. 11); type: in vivo, mouse; conditions: 5 mg/kg gavage, Mondays, Wednesdays and Fridays for 3 weeks
Method: Xenograft Experiments (FIG. 11): All animal studies were approved by the Institutional Animal Use and Care Committee and performed in accordance with the Guide for the Care and Use of Laboratory Animals. LN229 WT and LN229-MSH2^− cell lines were maintained in DMEM media supplemented with 10% fetal bovine serum. Three-four-week-old female athymic nude Foxnnu mice were obtained from Envigo and each mouse was inoculated subcutaneously with tumor cells (4.5-5×10^6) in 0.1 ml of PBS with Matrigel (1:1). Wild type cells were injected on the right flank and mutant cells were injected on the left flank. The tumors were then grown to a mean size of approximately 50-100 mm3 and the mice were then split into groups and treated as detailed in FIG. 7. Gavage doses of 5 mg/kg of KL-50 or TMZ were prepared by diluting stocks in DMSO with 10% cyclodextrin. Compound was administered each day of dosing at a volume of 100 μL/mouse. Mice were treated for 3 weeks with dosing on Mondays, Wednesdays and Fridays. Tumors were measured 3 times a week during treatment and during the washout period of 2 weeks. Xenograft tumors were measured by calipers and volume was calculated using the equation for ellipsoid volume: Volume=0.523×(length)×(width)^2. Statistical Analysis: Analysis of variance (ANOVA) was used to test for significant differences between groups. Post-hoc Bonferroni multiple comparison test analysis was used to determine significant differences among means. All statistical analysis was accomplished using Graph Pad Prism 8.2.0 software.

[2] = test system: LN229 MGMT−/MMR+ and LN229 MGMT−/MMR− (or MGMT−/MSH6−) flank tumors; assay: Murine flank tumor models; type: in vivo; conditions: for median OS: Kaplan-Meier
Method: Mouse Protocols for Flank Studies. A mouse tumor model was established by subcutaneously implanting human LN229 (MGMT−/MMR+) or LN229 (MGMT−/MMR−) cells. Cells were cultured as a monolayer in DMEM+10% FBS (Thermo Fisher) at 37° C. in a humidified atmosphere with 5% CO2 and passaged between one and three days prior to implantation and media was replaced every 2-3 days as needed to maintain cell viability. Cells were not allowed to exceed 80% confluency. On the day of implantation, cells were trypsinized, washed with complete media and pelleted by centrifugation at 1200 rpm for 5 minutes. The supernatant was decanted, and cells were washed three times with sterile PBS and pelleted by centrifugation. During the final centrifugation, viability was determined using trypan blue exclusion. Cells were resuspended in sterile PBS and diluted 1:1 in Matrigel (Corning, Cat #47743-716) for a final concentration of 5×10^6 cells/100 μL. 5 million cells were injected into the flank of female nude mice (Envigo, Hsd:Athymic Nude-Foxn1^nu, 3-4 weeks age, 15 g). Once tumors reached a minimum volume of 100 mm^3, mice were randomized and administered either KL-50 (4a; 5 mg/kg MWF×3 weeks), TMZ (1a; 5 mg/kg MWF×3 weeks), or vehicle (10% cyclodextrin) by oral gavage. Caliper measurements were obtained during the dosing period and at least two weeks following treatment. Mice were euthanized if body weight loss exceeded 20% or if tumor volume increased to greater than 2000 mm^3. Kaplan-Meier analysis was used to evaluate survival rate based on death or removal from study.
In a second study, mice were randomized and administered either KL-50 (4a) or vehicle (10% cyclodextrin) by oral gavage or intraperitoneal injection on either M-F×1 or MWF×3 cycles at 5, 15, or 25 mgs/kg. Caliper measurements were obtained during the dosing period and at least two weeks following treatment. Mice were euthanized if body weight loss exceeded 20% or if tumor volume increased to greater than 2000 mm^3.
The third study involved MGMT−/MMR+ and MGMT−/MSH6− (shMSH6) LN229 cells. Mice tumors were allowed to grow to a larger average starting volume of ˜350 mm^3 before they were randomized and administered either KL-50 (4a; 25 mg/kg MWF×3 weeks) or vehicle (10% cyclodextrin) by oral gavage. Caliper measurements were obtained during the dosing period and at least two weeks following treatment. Mice were euthanized if body weight loss exceeded 20% or if tumor volume increased to greater than 3000 mm^3.

[3] = test system: Isogenic glioma (Ln 229) cells, MGMT−/MMR−; assay: Clonogenic Survival Assay (FIG. 9); type: cell-based, human; conditions: identical concentrations of test compound
Method: Clonogenic Survival Assay (FIG. 9): Isogenic glioma (Ln 229) cells were pretreated with the test drug in culture for 48-72 hours at the specified dilutions. Cells were then transferred in media without drug to 6-well plates in triplicate at 3-fold dilutions ranging from 9,000 to 37 cells per well. After 14 days, plates were washed with PBS and stained with crystal violet. Colonies were counted by hand. Counts were normalized to plating efficiency of the corresponding treatment condition.

[4] = LN229 MGMT−/MMR− flank tumor-bearing mice, 5 mg/kg P.O. MWF×3 weeks

NC(=O)c1ncn2c(=O)n(CCF)nnc12 [KL-50, 3-(2-fluoroethyl)-4-oxo-3H,4H-imidazo[4,3-d][1,2,3,5]tetrazine-8-carboxamide]
activity in MGMT−/MMR (MSH2)+ tumors (in words) [1]: comparable activity to TMZ | activity in MGMT−/MMR (MSH2)− tumors (in words) [1]: surprisingly effective | tumor growth, MGMT−/MMR+ flank tumors (in words) ([2]; 5 mg/kg P.O. MWF×3 weeks): statistically non-inferior to TMZ (1a) | tumor growth, MGMT−/MMR− flank tumors (in words) ([2]; 5 mg/kg P.O. MWF×3 weeks): potently suppressed tumor growth | increase in median OS vs TMZ [2, 4]: greater than 5 week | median OS [2, 4]: greater than 15 weeks | body weight (in words) ([2]; LN229 flank tumor experiments, 5 mg/kg P.O. MWF×3 weeks): no significant changes in body weight | efficacy and toxicity over regimens (in words) ([2]; MGMT−/MMR+ and MGMT−/MMR− flank tumors, 5, 15, 25 mg/kg, MWF×3 weeks or M-F×1 week, PO or IP): effective and non-toxic; also recorded: equal efficacy with no observable increases in toxicity | growth of large tumors (in words) ([2]; ~350-400 mm^3 MGMT−/MMR+ and MGMT−/MSH6− tumors, 25 mg/kg PO MWF×3 weeks): potently suppressed the growth | cells survived (fraction) [3]: less than 10^−4

Cn1nnc2c(C(N)=O)ncn2c1=O [TMZ, temozolomide, reference compound]
activity in MGMT−/MMR (MSH2)− tumors (in words) [1]: ineffective | tumor growth, MGMT−/MMR+ flank tumors (in words) ([2]; 5 mg/kg P.O. MWF×3 weeks): suppressed tumor growth | tumor growth, MGMT−/MMR− flank tumors (in words) ([2]; 5 mg/kg P.O. MWF×3 weeks): no efficacy | median OS [2, 4]: 10 weeks | cells survived [3]: about 100%
